From patent publication US4868195A, “Novel enolamides, pharmaceutical compositions and methods of use thereof for activity as modulators of the arachidonic acid cascade” (Warner-Lambert Company, priority 1988, dated 1989)

Experiments:
[1] = target: T1, human leukocyte 5-lipoxygenase (Homo sapiens, UniProt P09917); assay: 5-lipoxygenase inhibition in human leukocytes, 5-HETE formation (5LOA; methods 5LOA1 and 5LOA2); assay type: cell-based; settings: 5-HETE formation, human leukocytes; read-out: Concentration (M) for 50.0 % Inhibition, IC (5LOA)
T1 construct: endogenous in cells; host or cells: intact leukocytes isolated from human blood
T1 sequence (P09917 1-674): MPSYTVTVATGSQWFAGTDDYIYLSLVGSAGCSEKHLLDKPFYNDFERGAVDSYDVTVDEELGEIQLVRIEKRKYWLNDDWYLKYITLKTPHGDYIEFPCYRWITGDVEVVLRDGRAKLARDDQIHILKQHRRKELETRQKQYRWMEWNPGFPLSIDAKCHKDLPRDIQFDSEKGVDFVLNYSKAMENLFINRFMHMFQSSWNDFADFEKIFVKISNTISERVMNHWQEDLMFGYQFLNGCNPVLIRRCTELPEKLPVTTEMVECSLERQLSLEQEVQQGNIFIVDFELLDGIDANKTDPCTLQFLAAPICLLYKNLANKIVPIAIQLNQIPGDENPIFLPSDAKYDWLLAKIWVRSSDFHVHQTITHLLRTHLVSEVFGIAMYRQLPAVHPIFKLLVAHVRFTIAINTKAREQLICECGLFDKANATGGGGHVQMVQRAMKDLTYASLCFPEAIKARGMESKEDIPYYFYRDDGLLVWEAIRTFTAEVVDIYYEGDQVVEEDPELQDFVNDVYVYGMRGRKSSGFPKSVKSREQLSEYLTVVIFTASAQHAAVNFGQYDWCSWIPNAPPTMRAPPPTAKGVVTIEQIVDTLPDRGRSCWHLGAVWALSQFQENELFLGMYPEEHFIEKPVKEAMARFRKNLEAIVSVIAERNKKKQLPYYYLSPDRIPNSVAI
Description: To Evaluate the Effect of Each Compounds as a 5-Lipoxygenase Inhibitor in Comparison to Standard Reference Agents in Human Leukocytes (5LOA1)
The purpose of this assay is to evaluate the activity of each compound as an inhibitor of human leukocyte 5-lipoxygenase.
Arachidonic acid and calcium ionophore A23187 are obtained from Sigma (St. Louis, MO). Silica gel plates, GF are obtained from Analtech (Newark, DE). Arachidonic acid, (1-^14 C) and 5-HETE (^3 H), 5 (S)-hydroxy-6-trans,8,11,14-cis eicosatetraenoic acid, are obtained from New England Nuclear (Boston, MA). Six percent Dextran-70 in 0.9% NaCl is obtained from Cutter Labs (Berkeley, CA).
Preparation of Leukocytes
Fresh blood from normal adult men who had not received any drugs for at least the previous five days is obtained by the Community Research Clinic (WL/PD) using venipuncture and collected into heparinized vacuotainer tubes. To every 100 ml of pooled blood is added 25 ml of dextran solution (6% dextran -70 in 0.9% sodium chloride containing 3% dextrose) and this is mixed gently in a plastic cylinder. The mixture is left to stand at room temperature for at least 90 minutes. The upper layer which is rich in leukocytes and platelets is then carefully decanted into 50 ml plastic tubes and centrifuged at about 100×g for eight minutes in an IEC centrifuge and rotor number 269 (about 600 rpm). The supernatant fluid is discarded and the pellet is resuspended in 10 ml of 0.87% ammonium chloride for exactly two minutes. This procedure is to lyse completely contaminating red blood cells. Leukocytes are then separated by centrifugation for ten minutes. The pellet is washed three times by suspension in 20 ml PBS (sodium chloride, 7.1 g; Na2 HPO4, 1.15 g; KH2 PO4, 0.2 g, and KCl, 0.2 g/L) and centrifuged as before. The final pellet is suspended in PBS containing 0.87 mM CaCl2. Viability of the cells is then checked using trypan blue exclusion method and is found to be over 90%.
5-Lipoxygenase Enzyme Assay
Leukocyte cells in suspension (0.98 ml) are incubated with or without test compounds for five minutes at 37° C. in a shaking water bath. At this time a 17 μl mixture is prepared per 1 ml of cell suspension: 100 mM arachidonic acid, 1 μl, 0.05 μCi ^14 C-arachidonic acid in 5 μl; 1 mM calcium ionophore A23187, 10 μl (1). This mixture is added and the incubation continued for five minutes. The reaction is stopped by adding four volumes of absolute ethanol and the mixture is kept in ice for 30 minutes. The floculated precipitate is separated by centrifugation at about 37,000×g for 20 minutes (Beckman Instruments rotor number 40). The alcohol extract is taken to dryness under a stream of nitrogen and the residue is dissolved in 100-200 μl absolute ethanol. At the time any turbidity is removed by centrifugation. An aliquot (25-50 μl) is applied onto 20×20 cm silica gel TLC plate and developed using the following solvent system: diethyl ether, petroleum ether (2040° C.), acetic acid (50:50:1 v/v). Zones of 1 cm apart are scraped from the TLC plate and transferred to mini-vials. Methanol (0.5 ml) is added to dissolve the radioactivity adsorbed to the silica gel and scintillation fluid (H. P., Beckman), 5 ml is then added and vials are counted in a liquid scintillation counter. A sample of ^3 H-5-HETE is applied and used for the identification of the formed 5-HETE.
Total radioactivity in the test as well as the control samples are normalized and the amount of 5-HETE present is calculated accordingly.
IC50 values are defined as the concentrations of test agents which caused a 50% inhibition of the formation of 5-HETE as compared to control and are determined by inspection of the concentration-response curves.
5-Lipoxygenase Assay Using Isolated Human Leukocytes (5LOA2)
The formation of 5-HETE in human leukocytes is considered a measure of 5-lipoxygenase activity. The protocol is described in the following. […]

[2] = test system: Human Leukocyte Lipoxygenase; assay: Human Leukocyte Lipoxygenase Assay (LDA-H); assay type: biochemical; settings: Concentration 2.50 E -5 M
Procedure, shortened: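 Enzyme from acetone-pentane powder of human buffy-coat leukocytes, extracted in 0.1M Tris pH 7.4. Compound preincubated 5 min with enzyme, then reaction started with arachidonic or linoleic acid (100 μM or 1.0 μM) and followed at 234 nm (conjugated diene) at 24° C. IC50 is molar concentration halving control rate.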

- IC50 [1]: 5e-07 M
- % Inhibition (LDAH) [2]: 0.0%
Structure (SMILES): O=C(Nc1ccc(CCc2ccc(O)c(O)c2)cc1)C1Oc2c(n(-c3ccccc3)c3ccc(O)cc23)C1=O (centres unmarked) [Example 163, 2H-Furo[3,2-b]indole-2-carboxamide, N-[4-[2-(3,4-dihydroxyphenyl)ethyl]phenyl]-3,4-dihydro-7-hydroxy-3-oxo-4-phenyl]
